According to patent US8168231B2, “Antimicrobial composition useful for preserving wood” (Rohm and Haas Company, priority 2006, dated 2012):
Read-outs that look alike come from different tables or passages of the source.

Columns and labels:
Type in all cases: cell-based
[1] = tested on: Aspergillus niger (A. niger—ATCC 16404); assay: Synergy test, microtiter plate high resolution MIC assay (PDB medium); details: ppm AI; for MIC: Aspergillus niger, read-out: MIC of component acting alone (Ca or Cb)
Description: (§1) One measure of synergism is the industrially accepted method described by Kull, F. C.; Eisman, P. C.; Sylwestrowicz, H. D. and Mayer, R. L., in Applied Microbiology 9:538-541 (1961), using the ratio determined by the formula: Ca/CA+Cb/CB=Synergy Index (“SI”) wherein: • CA=concentration of compound A (first component) in ppm, acting alone, which produced an end point (MIC of Compound A). • Ca=concentration of compound A in ppm, in the mixture, which produced an end point. • CB=concentration of compound B (second component) in ppm, acting alone, which produced an end point (MIC of Compound B). • Cb=concentration of compound B in ppm, in the mixture, which produced an end point.
(§2) When the sum of Ca/CA and Cb/CB is greater than one, antagonism is indicated. […] The lower the SI, the greater the synergy shown by that particular mixture. The minimum inhibitory concentration (MIC) of an antimicrobial compound is the lowest concentration tested under a specific set of conditions that prevents the growth of added microorganisms.
(§3) Synergy tests were conducted using standard microtiter plate assays with media designed for optimal growth of the test microorganism. Minimal salt medium supplemented with 0.2% glucose and 0.1% yeast extract (M9GY medium) was used for bacteria testing; Potato Dextrose Broth (PDB medium) was used for yeast and mold testing. In this method, a wide range of combinations of microbicides was tested by conducting high resolution MIC assays in the presence of various concentrations of biocides. High resolution MICs were determined by adding varying amounts of microbicide to one column of a microtitre plate and doing subsequent ten-fold dilutions using an automated liquid handling system to obtain a series of end points ranging of active ingredient. The synergy of the combinations of the present invention was determined against two bacteria, Pseudomonas aeruginosa (Ps. aeruginosa—ATCC # 9027) and Staphylococcus aureus (S. aureus—ATCC # 6538), a yeast, Candida albicans (C. albicans—ATCC # 10231), and a mold, Aspergillus niger (A. niger—ATCC 16404). The bacteria were used at a concentration of about 1-6×10^6 bacteria per mL and the yeast and mold at 1−5×10^5 fungi per mL. These microorganisms are representative of natural contaminants in many consumer and industrial applications. […] (yeast and mold) or 30° C. (bacteria).

[2] = tested on: Candida albicans (C. albicans—ATCC # 10231); assay: as above; details: ppm AI; for MIC: Candida albicans, read-out: MIC of component acting alone (Ca or Cb)
Description: as §1, §2, §3

[3] = tested on: Pseudomonas aeruginosa (Ps. aeruginosa—ATCC # 9027); assay: Synergy test, microtiter plate high resolution MIC assay (M9GY medium); details: ppm AI; for MIC: Pseudomonas aeruginosa, read-out: MIC of component acting alone (Ca or Cb)
Description: as §1, §2, §3

[4] = tested on: Staphylococcus aureus (S. aureus—ATCC # 6538); assay: as above; details: ppm AI; for MIC: Staphylococcus aureus, read-out: MIC of component acting alone (Ca or Cb)
Description: as §1, §2, §3

Q: For “Monoethanolamine complex of copper carbonate [Cu-MEA]”, which “MIC of component acting alone (Ca or Cb)” value ([1]; Table 1, contact time 3 days) is on record?
A: 300 ppm

Q: And the “MIC of component acting alone (Ca or Cb)” value ([1]; Table 1, contact time 7 days)?
A: 300 ppm

Q: And the “MIC of component acting alone (Ca or Cb)” value ([2]; Table 1, contact time 48 hrs)?
A: 200 ppm

Q: What about the “MIC of component acting alone (Ca or Cb)” value ([2]; Table 1, contact time 72 hrs) of the same compound?
A: 200 ppm

Q: What about the “MIC of component acting alone (Ca or Cb)” value ([3]; Table 1, contact time 24 hrs) of the same compound?
A: 120 ppm

Q: What about the “MIC of component acting alone (Ca or Cb)” value ([3]; Table 1, contact time 48 hrs) of the same compound?
A: 120 ppm

Q: What about the “MIC of component acting alone (Ca or Cb)” value ([4]; Table 1, contact time 24 hrs) of the same compound?
A: 80 ppm

Q: And the “MIC of component acting alone (Ca or Cb)” value ([4]; Table 1, contact time 48 hrs)?
A: 200 ppm

Q: What does the source list for `CCCCCCCCn1sc(Cl)c(Cl)c1=O` [DCOIT, 4,5-dichloro-2-n-octyl-4-isothiazolin-3-one]?
A: MIC ([1]; ATCC16404, 72 h, Table 1, contact time 3 days): 0.25 µg/mL; MIC ([1]; ATCC16404, 72 h, Table 2, contact time 3 days): 0.0875 µg/mL; MIC ([1]; ATCC16404, 168 h, Table 1, contact time 7 days): 0.25 µg/mL; MIC ([1]; ATCC16404, 168 h, Table 2, contact time 7 days): 0.2 µg/mL; MIC ([2]; ATCC10231, Table 1, contact time 48 hrs): 1 µg/mL; MIC ([2]; ATCC10231, Table 1, contact time 72 hrs): 1 µg/mL; MIC ([3]; ATCC9027, 24 h, Table 1, contact time 24 hrs): 3 µg/mL; MIC ([3]; ATCC9027, 24 h, Table 2, contact time 24 hrs): 2 µg/mL; MIC ([3]; ATCC9027, 48 h, Table 1, contact time 48 hrs): 3 µg/mL; MIC ([3]; ATCC9027, 48 h, Table 2, contact time 48 hrs): 4.25 µg/mL; MIC ([4]; ATCC6538, 24 h, Table 1, contact time 24 hrs): 0.5 µg/mL; MIC ([4]; ATCC6538, 24 h, Table 2, contact time 24 hrs): 0.65 µg/mL; MIC ([4]; ATCC6538, 48 h, Table 1, contact time 48 hrs): 0.5 µg/mL; MIC ([4]; ATCC6538, 48 h, Table 2, contact time 48 hrs): 0.65 µg/mL
